Data as given in patent EP0255256A2, “Antibiotics produced by actinomadura parvosata” (SMITHKLINE BECKMAN CORPORATION, priority 1986, dated 1988).
In brackets after ≈: the same amount, converted by molar mass.

Key:
[1] = tested on: Staph. aureus 209P; assay: MIC, standard microtiter assay; type: cell-based; details: Staphylococcus aureus; Staph. aureus 209P; Table VIII; read-out: MIC
Method: (§1) The in vitro minimal inhibitory concentration (MIC) of the AAJ-271 complex and its factors, and vancomycin were determined for a number of microorganisms using the standard microtite'r assay procedures. The results are shown in the following tables, each of which represents a different production run of the complex.
(§2) The in vitro minimal inhibitory concentration (MIC) and the in vitro minimal bactericidal concentration (MBC) of the AAJ-271 aglycones, pseudo-aglycone and vancomycin were determined for a number of microorganisms using the standard microtiter assay procedures.

[2] = tested on: Staph. aureus 2620; assay: MIC, standard microtiter assay; type: cell-based; details: Staphylococcus aureus; Staph. aureus 2620; Table VIII; read-out: MIC
Method: as §1, §2

[3] = tested on: Staph. aureus 675; assay: MIC, standard microtiter assay; type: cell-based; details: Staphylococcus aureus; Staph. aureus 675; Table VIII; read-out: MIC
Method: as §1, §2

[4] = tested on: Staph. aureus 910; assay: MIC, standard microtiter assay; type: cell-based; details: Staphylococcus aureus; Staph. aureus 910; Table VIII; read-out: MIC
Method: as §1, §2

[5] = tested on: Staph. aureus HH127; assay: MIC, standard microtiter assay; type: cell-based; details: Staphylococcus aureus; Staph. aureus HH127; Table VIII; read-out: MIC
Method: as §1, §2

[6] = tested on: Staph. epidermidis 2256; assay: MIC, standard microtiter assay; type: cell-based; details: Staphylococcus epidermidis; Staph. epidermidis 2256; Table VIII; read-out: MIC
Method: as §1, §2

[7] = tested on: Staph. epidermidis 2265; assay: MIC, standard microtiter assay; type: cell-based; details: Staphylococcus epidermidis; Staph. epidermidis 2265; Table VIII; read-out: MIC
Method: as §1, §2

[8] = tested on: Staph. epidermidis 2479; assay: MIC, standard microtiter assay; type: cell-based; details: Staphylococcus epidermidis; Staph. epidermidis 2479; Table VIII; read-out: MIC
Method: as §1, §2

[9] = tested on: Staph. epidermidis 2588; assay: MIC, standard microtiter assay; type: cell-based; details: Staphylococcus epidermidis; Staph. epidermidis 2588; Table VIII; read-out: MIC
Method: as §1, §2

[10] = tested on: Staph. haemolyticus 651; assay: MIC, standard microtiter assay; type: cell-based; details: Staphylococcus haemolyticus; Staph. haemolyticus 651; Table VIII; read-out: MIC
Method: as §1, §2

[11] = tested on: Staph. saprophyticus 2657; assay: MIC, standard microtiter assay; type: cell-based; details: Staphylococcus saprophyticus; Staph. saprophyticus 2657; Table VIII; read-out: MIC
Method: as §1, §2

[12] = tested on: Strep. faecalis 34358; assay: MIC, standard microtiter assay; type: cell-based; details: Enterococcus faecalis; Strep. faecalis 34358; Table VIII; read-out: MIC
Method: as §1, §2

[13] = tested on: Strep. faecalis 657; assay: MIC, standard microtiter assay; type: cell-based; details: Enterococcus faecalis; Strep. faecalis 657; Table VIII; read-out: MIC
Method: as §1, §2

[14] = tested on: Strep. pyogenes (Group A); assay: MIC, standard microtiter assay; type: cell-based; details: Streptococcus pyogenes; Strep. pyogenes (Group A); Table VIII; read-out: MIC
Method: as §1, §2

[15] = tested on: Staph. aureus 209P vancomycin resistant mutant; assay: MIC, standard microtiter assay; type: cell-based; details: Staphylococcus aureus, read-out: MIC in μg/ml
Method: as §2

[16] = tested on: Staph. epidermidis 2261; assay: MIC, standard microtiter assay; type: cell-based; details: Staphylococcus epidermidis; Staph. epidermidis 2261; Table VIII; read-out: MIC
Method: as §2

[17] = tested on: Staph. aureus 2620; assay: MBC, standard assay procedures; type: cell-based; details: Staphylococcus aureus; Staph. aureus 2620; Table VIII; read-out: MBC
Method: (§3) The in vitro minimal bactericidal concentration (MBC) of the AAJ-271 C, C2 and C3 factors and vancomycin were determined for a number of microorganisms using standard assay procedures.
as §2

[18] = tested on: Staph. aureus 675; assay: MBC, standard assay procedures; type: cell-based; details: Staphylococcus aureus; Staph. aureus 675; Table VIII; read-out: MBC
Method: as §3, §2

[19] = tested on: Staph. aureus HH127; assay: MBC, standard assay procedures; type: cell-based; details: Staphylococcus aureus; Staph. aureus HH127; Table VIII; read-out: MBC
Method: as §3, §2

[20] = tested on: Staph. epidermidis 2265; assay: MBC, standard assay procedures; type: cell-based; details: Staphylococcus epidermidis; Staph. epidermidis 2265; Table VIII; read-out: MBC
Method: as §3, §2

[21] = tested on: Staph. epidermidis 2479; assay: MBC, standard assay procedures; type: cell-based; details: Staphylococcus epidermidis; Staph. epidermidis 2479; Table VIII; read-out: MBC
Method: as §3, §2

[22] = tested on: Staph. haemolyticus 651; assay: MBC, standard assay procedures; type: cell-based; details: Staphylococcus haemolyticus; Staph. haemolyticus 651; Table VIII; read-out: MBC
Method: as §3, §2

[23] = tested on: Strep. faecalis 34358; assay: MBC, standard assay procedures; type: cell-based; details: Enterococcus faecalis; Strep. faecalis 34358; Table VIII; read-out: MBC
Method: as §3, §2

[24] = tested on: Strep. faecalis 657; assay: MBC, standard assay procedures; type: cell-based; details: Enterococcus faecalis; Strep. faecalis 657; Table VIII; read-out: MBC
Method: as §3, §2

[25] = tested on: Staph. aureus 209P vancomycin resistant mutant; assay: MBC, standard assay procedures; type: cell-based; details: Staphylococcus aureus, read-out: MBC in μg/ml
Method: as §2

[26] = tested on: Staph. aureus 209P; assay: MBC, standard assay procedures; type: cell-based; details: Staphylococcus aureus; Staph. aureus 209P; Table VIII; read-out: MBC
Method: as §2

[27] = tested on: Staph. aureus 910; assay: MBC, standard assay procedures; type: cell-based; details: Staphylococcus aureus; Staph. aureus 910; Table VIII; read-out: MBC
Method: as §2

[28] = tested on: Staph. epidermidis 2256; assay: MBC, standard assay procedures; type: cell-based; details: Staphylococcus epidermidis; Staph. epidermidis 2256; Table VIII; read-out: MBC
Method: as §2

[29] = tested on: Staph. epidermidis 2261; assay: MBC, standard assay procedures; type: cell-based; details: Staphylococcus epidermidis; Staph. epidermidis 2261; Table VIII; read-out: MBC
Method: as §2

[30] = tested on: Staph. epidermidis 2588; assay: MBC, standard assay procedures; type: cell-based; details: Staphylococcus epidermidis; Staph. epidermidis 2588; Table VIII; read-out: MBC
Method: as §2

[31] = tested on: Staph. saprophyticus 2657; assay: MBC, standard assay procedures; type: cell-based; details: Staphylococcus saprophyticus; Staph. saprophyticus 2657; Table VIII; read-out: MBC
Method: as §2

[32] = tested on: Strep. pyogenes (Group A); assay: MBC, standard assay procedures; type: cell-based; details: Streptococcus pyogenes; Strep. pyogenes (Group A); Table VIII; read-out: MBC
Method: as §2

[33] = tested on: Staph. aureus HH127; assay: Mouse protection assay; type: in vivo; details: Staphylococcus aureus, 1 h; mice; intraperitoneal s.c. infection; Staph. aureus HH127, Dosage as No. of LD50's = 4; treatment one hour post infection; Table X; read-out: ED50
[34] = tested on: Strep. faecalis 34358; assay: Mouse protection assay; type: in vivo; details: Enterococcus faecalis, 1 h; mice; intraperitoneal s.c. infection; Strep. faecalis 34358, Dosage as No. of LD50's = 3.5; treatment one hour post infection; Table X; read-out: ED50
[35] = tested on: Staph. aureus 2630; assay: Mouse protection assay; type: in vivo; details: Staphylococcus aureus, 2630, 1 h

`CNC1C(=O)NC2Cc3ccc(cc3)Oc3cc4cc(c3O)Oc3ccc(cc3Cl)C(O)C3NC(=O)C(NC(=O)C4NC(=O)C(NC2=O)c2cc(cc(O)c2Cl)Oc2cc1ccc2O)c1ccc(O)c(c1)-c1c(O)cc(O)cc1C(C(=O)O)NC3=O` (stereo not shown) [Aglycone 1] was tested, and the MIC [1] was 0.4 µg/mL (≈ 0.33 µM), the MIC [2] was 0.4 µg/mL (≈ 0.33 µM) and the MIC [3] was 0.8 µg/mL (≈ 0.66 µM). The MIC [4] was 0.4 µg/mL (≈ 0.33 µM), the MIC [5] was 0.4 µg/mL (≈ 0.33 µM) and the MIC [6] was 1.6 µg/mL (≈ 1.32 µM). The MIC [7] was 0.4 µg/mL (≈ 0.33 µM), the MIC [8] was 0.8 µg/mL (≈ 0.66 µM) and the MIC [9] was 0.8 µg/mL (≈ 0.66 µM). The MIC [10] was 3.1 µg/mL (≈ 2.56 µM), the MIC [11] was 0.8 µg/mL (≈ 0.66 µM) and the MIC [12] was 1.6 µg/mL (≈ 1.32 µM). For the same compound, the MIC [13] was 1.6 µg/mL (≈ 1.32 µM), the MIC [14] was 0.8 µg/mL (≈ 0.66 µM) and the MIC [15] was 25 µg/mL (≈ 20.6 µM). For the same compound, the MIC [16] was 0.8 µg/mL (≈ 0.66 µM), the MBC [17] was 3.1 µg/mL (≈ 2.56 µM) and the MBC [18] was 6.3 µg/mL (≈ 5.19 µM). The MBC [19] was 1.6 µg/mL (≈ 1.32 µM), the MBC [20] was 0.4 µg/mL (≈ 0.33 µM) and the MBC [21] was 6.3 µg/mL (≈ 5.19 µM). For the same compound, the MBC [22] was 6.3 µg/mL (≈ 5.19 µM), the MBC [23] was 100 µg/mL (≈ 82.4 µM) and the MBC [24] was 100 µg/mL (≈ 82.4 µM). For the same compound, the MBC [25] was 25 µg/mL (≈ 20.6 µM), the MBC [26] was 3.1 µg/mL (≈ 2.56 µM) and the MBC [27] was 3.1 µg/mL (≈ 2.56 µM). The MBC [28] was 1.6 µg/mL (≈ 1.32 µM), the MBC [29] was 1.6 µg/mL (≈ 1.32 µM) and the MBC [30] was 0.8 µg/mL (≈ 0.66 µM). It also gave an MBC [31] of 1.6 µg/mL (≈ 1.32 µM), an MBC [32] of 0.8 µg/mL (≈ 0.66 µM) and an ED50 [33] of 0.88 mg/kg. For the same compound, the ED50 [34] was 5 mg/kg and the ED50 [35] was 6.4 mg/kg.
With `CN(C)C1C(=O)NC2Cc3ccc(cc3)Oc3cc4cc(c3O)Oc3ccc(cc3Cl)C(O)C3NC(=O)C(NC(=O)C4NC(=O)C(NC2=O)c2cc(cc(O)c2Cl)Oc2cc1ccc2O)c1ccc(O)c(c1)-c1c(O)cc(O)cc1C(C(=O)O)NC3=O` (stereo not shown) [Aglycone 2] the MIC [1] was 0.4 µg/mL (≈ 0.326 µM), the MIC [2] was 0.8 µg/mL (≈ 0.652 µM) and the MIC [3] was 0.4 µg/mL (≈ 0.326 µM). The MIC [4] was 0.4 µg/mL (≈ 0.326 µM), the MIC [5] was 0.4 µg/mL (≈ 0.326 µM) and the MIC [6] was 0.8 µg/mL (≈ 0.652 µM). The MIC [7] was 0.8 µg/mL (≈ 0.652 µM), the MIC [8] was 0.8 µg/mL (≈ 0.652 µM) and the MIC [9] was 1.6 µg/mL (≈ 1.3 µM). The MIC [10] was 6.3 µg/mL (≈ 5.13 µM), the MIC [11] was 0.8 µg/mL (≈ 0.652 µM) and the MIC [12] was 1.6 µg/mL (≈ 1.3 µM). For the same compound, the MIC [13] was 1.6 µg/mL (≈ 1.3 µM), the MIC [14] was 1.6 µg/mL (≈ 1.3 µM) and the MIC [15] was 25 µg/mL (≈ 20.4 µM). For the same compound, the MIC [16] was 1.6 µg/mL (≈ 1.3 µM), the MBC [17] was 0.8 µg/mL (≈ 0.652 µM) and the MBC [18] was 0.4 µg/mL (≈ 0.326 µM). It also gave an MBC [19] of 0.4 µg/mL (≈ 0.326 µM), an MBC [20] of 0.8 µg/mL (≈ 0.652 µM) and an MBC [21] of 0.8 µg/mL (≈ 0.652 µM). For the same compound, the MBC [22] was 6.3 µg/mL (≈ 5.13 µM), the MBC [23] was greater than 50 µg/mL and the MBC [24] was 6.3 µg/mL (≈ 5.13 µM). It also gave an MBC [25] of 25 µg/mL (≈ 20.4 µM), an MBC [26] of 0.4 µg/mL (≈ 0.326 µM) and an MBC [27] of 0.4 µg/mL (≈ 0.326 µM). It also gave an MBC [28] of 0.8 µg/mL (≈ 0.652 µM), an MBC [29] of 1.6 µg/mL (≈ 1.3 µM) and an MBC [30] of 3.1 µg/mL (≈ 2.53 µM). It also gave an MBC [31] of 0.8 µg/mL (≈ 0.652 µM) and an MBC [32] of 0.8 µg/mL (≈ 0.652 µM).
